Test results as given in patent publication US4690920A, “Derivative of cephalosporanic acid and pharmaceutical composition comprising the same” (Kureha Kagaku Kogyo Kabushiki Kaisha, priority 1982, dated 1987).

Columns and labels:
Escherichia coli = assay: Effect on the intestinal bacterial colonies: number of Escherichia coli in feces; assay type: in vivo, Escherichia coli (feces of female ICR mice); details: for Log10 value of the number of bacterial cells/g of feces, Escherichia coli: oral, 500 mg/kg/day for 2 days, feces one day after administration, before administration 7.0
Description: (§1) After collecting the feces of a group of mice, each of the compounds represented by the formula (I) was orally administered to each of the group for 2 continued days at a daily dose rate of 500 mg per kg body weight, and the feces were again collected one day after the administration. Each portion of the thus collected, two kinds of the feces was cultured at 25° C. or 37° C. in a variety of culture media for one to five days to see the state of growth of the following bacteria which are present habitually in the intestine of the mouse: Escherichia coli, Pseudomonas aeruginosa, a streptococcus bacterial species, a lactobacillis bacteria, Lactobacillus bifidus and a bacterioides bacteria.
(§2) Each of the compounds, respectively produced in Examples 1 to 6 was orally administered for two continued days at a daily dosage of 500 mg/kg body weight to each of five female ICR mice of a group after 6 weeks of birth.
(§3) Each of the two fecal specimens respectively collected before and after one day of the administration was diluted with 100 times by weight of an anaerobic diluent (a phosphoric buffer solution) and was ground in a mortar, and 0.1 ml of the ground material was smeared on each of the following culture media for the following bacteria and the thus inoculated culture media were incubated under the following conditions. Thereafter, the number of the following bacteria was determined on each culture medium.
DHL agar 37° C., for 1 day, […]

[1] = test system: A species of Bacterioides; assay: Effect on the intestinal bacterial colonies: number of a species of Bacterioides in feces; assay type: in vivo, Bacteroides (feces of female ICR mice); details: oral, 500 mg/kg/day for 2 days; feces one day after administration; before administration 8.1
Description: as §1, §2, §3
a species of NBGT agar 37° C., for 5 days,7 -Bacteroides anaer

Lactobacillus bifidus = assay: Effect on the intestinal bacterial colonies: number of Lactobacillus bifidus in feces; assay type: in vivo, Lactobacillus bifidus (feces of female ICR mice); details: oral, 500 mg/kg/day for 2 days; feces one day after administration; before administration 8.0
Description: as §1, §2, §3
BS agar 37° C., for 5 days, […]

[2] = test system: A species of Streptococcus; assay: Effect on the intestinal bacterial colonies: number of a species of Streptococcus in feces; assay type: in vivo, Streptococcus (feces of female ICR mice); details: oral, 500 mg/kg/day for 2 days; feces one day after administration; before administration 6.4
Description: as §1, §2, §3
a species of TATAC agar 37° C., for 1 day, […]

[3] = test system: A species of Lactobacillus; assay: Effect on the intestinal bacterial colonies: number of a species of Lactobacillus in feces; assay type: in vivo, Lactobacillus (feces of female ICR mice); details: for Log10 value of the number of bacterial cells/g of feces, a species of Lactobacillus: oral, 500 mg/kg/day for 2 days, feces one day after administration, before administration 9.0
Description: as §1, §2, §3
a species of LBS agar 37° C., for 5 days, […]

Pseudomonas aeruginosa = assay: Effect on the intestinal bacterial colonies: number of Pseudomonas aeruginosa in feces; assay type: in vivo, Pseudomonas aeruginosa (feces of female ICR mice); details: oral, 500 mg/kg/day for 2 days; feces one day after administration; before administration <3.0
Description: as §1, §2, §3
NAC agar 37° C., for 1 day, […]

[4] = test system: Staphylococcus aureus IAM 1011; assay: Model test for verifying the activation in living body: growth-inhibition circle with/without rat liver S-9 mix; assay type: cell-based; details: 20 min at 37° C., then 18 hours at 37° C.; for Sign: diameter of growth-inhibiting circle as percentage of that due to compound of formula (II), with the addition of S-9 mix: with the addition of S-9 mix (rat liver homogenate)
Description: On each flat culture plate prepared by adding 10^8 cells/ml of a preliminarily cultured Staphylococcus aureus IAM 1011 into 50 times by weight of Mueller-Hinton's agar culture medium, a penicillin cup of 8 mm in diameter was placed, and into each cup 0.1 ml of each of the compounds represented by the formula (I) or 0.1 ml of a cultured product of each of the compounds represented by the formula (I) together with a rat liver homogenate (containing a metabolism-activating enzyme, referred to as S-9 mix) was introduced. The diameter of each growth-inhibition circle formed around the cup after incubating the flat culture plate with the cup for 18 hours at 37° C. was measured, and the thus obtained value was compared to the value obtained by the same procedures except for using the compound represented by the formula (II), the starting compound instead of each of the compounds represented by the formula (I).
As a metabolism-activating enzyme, a rat liver homogenate (S-9, manufactured by Oriental Yeast Co.) was used in the following composition (referred to as S-9 mix, hereinafter):
After mixing 0.1 ml of a solution of the compound to be tested with 0.9 ml of S-9 mix or 0.9 ml of 0.1M phosphoric acid buffer solution, the mixture was subjected to shaking culture for 20 min at 37° C. to prepare a test reaction solution for use in the following experiment.
Staphylococcus aureus IAM 1011 was inoculated to Mueller-Hinton's culture medium and the inoculum was cultured for 18 hours at 37° C. and after adjusting the number of the bacterial cells to 10^8 /ml of the culture medium, 50 times by weight of the Mueller-Hinton's agar culture medium were added to the cultured medium to prepare flat culture plates.
After placing a penicillin-cup of 8 mm in diameter on each of the thus prepared flat culture plates, 0.1 ml of the above-mentioned test reaction solution was introduced into the penicillin-cup, and after leaving the system for 2 hours at 4° C., the system was incubated for 18 hour at 37° C., and the diameter of the growth-inhibition circle around the cup on the culture plate was determined.
The thus obtained diameter of the growth-inhibiting circle due to each of the compounds produced respectively in Examples 1 to 6 was compared to that due to the compound repesente by the formula (II), substituted cephalosporanic acid by percentage, and the following signs were respectively given to the respective compounds as follows: […]

[5] = test system: Escherichia coli IFO 12734; assay: Anti-bacterial activity, agar plate dilution method (MIC), Escherichia coli; assay type: cell-based; details: 18 to 24 hours, 37° C.; for Minimum concentration of inhibiting growth of Escherichia coli (MIC): Mueller-Hinton agar; for MIC: IFO12734, Mueller-Hinton agar, read-out: Minimum concentration of inhibiting growth of Escherichia coli (MIC)
Description: (§4) 3-1: The minimum growth-inhibiting concentration (MIC) of each of the compounds represented by the formula (I) was measured according to the standard procedures of Japan Society of Chemotherapy against each of the following bacterial species:
Escherichia coli, IFO 12734 and
(§5) Anti-bacterial activity of each of the compounds produced in Examples 1 to 6 was measured according to the standard procedures of Japan Society of Chemotherapy in agar plate dilution method as follows:
(§6) As a test bacterial species, Escherichia coli IFO 12734 and Staphylococcus aureus IAM 1011, and each strain was inoculated into Mueller-Hinton's culture medium for 18 to 48 hours at 37° C., and while using the thus cultured bacteria, each of the test bacterial liquid containing 10^6 cells in one ml was prepared.
(§7) Separately, after preparing each series of diluted aqueous solutions of each of the compounds produced in Examples 1 to 6, respectively, each of them was mixed in amount of 1/9 time by weight with the Mueller-Hinton's culture medium and each flat agar culture plate was prepared by using the thus formed mixture.

[6] = test system: Staphylococcus aureus IAM 1011; assay: Anti-bacterial activity, agar plate dilution method (MIC), Staphylococcus aureus; assay type: cell-based; details: 18 to 24 hours, 37° C.; for Minimum concentration of inhibiting growth of Staphylococcus aureus (MIC): Mueller-Hinton agar; for MIC: IAM1011, Mueller-Hinton agar, read-out: Minimum concentration of inhibiting growth of Staphylococcus aureus (MIC)
Description: as §4
Staphylococcus aureus, IAM 1011
as §5, §6, §7

[7] = compared to that before administration

| SMILES | number of cells of Escherichia coli after administration (in words) (Escherichia coli; [7]) | Log10 value of the number of bacterial cells/g of feces, Escherichia coli (Escherichia coli) | Log10 value of the number of bacterial cells/g of feces, a species of Bacterioides [1] | Log10 value of the number of bacterial cells/g of feces, Lactobacillus bifidus (Lactobacillus bifidus) | Log10 value of the number of bacterial cells/g of feces, a species of Streptococcus [2] | number of a certain species of Lactobacillus after administration (in words) [3, 7] | Log10 value of the number of bacterial cells/g of feces, a species of Lactobacillus [3] | Log10 value of the number of bacterial cells/g of feces, Pseudomonas aeruginosa (Pseudomonas aeruginosa) | Sign: diameter of growth-inhibiting circle as percentage of that due to compound of formula (II), with the addition of S-9 mix [4] | Sign: diameter of growth-inhibiting circle as percentage of that due to compound of formula (II), without adding S-9 mix [4] | Minimum concentration of inhibiting growth of Escherichia coli (MIC) [5] | Minimum concentration of inhibiting growth of Staphylococcus aureus (MIC) [6] | MIC [5] | MIC [6] |
| --- | --- | --- | --- | --- | --- | --- | --- | --- | --- | --- | --- | --- | --- | --- |
| CO[C@@]1(NC(=O)CSCC#N)C(=O)N2C(C(=O)O)=C(CSc3nnnn3C)CS[C@@H]21 [CEFMETAZOLE, reference compound] | showed an increase | < 3.0 Log10 cells/g of feces | 4.6 Log10 cells/g of feces | 3.8 Log10 cells/g of feces | < 3.0 Log10 cells/g of feces | showed a reduction | 4.0 Log10 cells/g of feces | 7.0 Log10 cells/g of feces |  |  |  |  |  |  |
| COC1(NC(=O)CSCC#N)C(=O)N2C(C(=O)Nc3ccc(C(=O)O)cc3)=C(CSc3nnnn3C)CSC21 (stereo not drawn) [Example 1, N-(4-carboxyphenyl)-{7-beta-cyanomethylthioacetamido-7-alpha-methoxy-3-[(1-methyl-1H-tetrazol5-yl)thio]methyl-3-cepheme-4-carboxylic}amide] |  | 7.2 Log10 cells/g of feces | 8.1 Log10 cells/g of feces | 8.0 Log10 cells/g of feces | 6.0 Log10 cells/g of feces |  | 8.9 Log10 cells/g of feces | < 3.0 Log10 cells/g of feces | + (1 to 33) | - (0) | ≥ 100 microgram/ml | ≥ 100 microgram/ml |  |  |
| COC(=O)c1ccc(NC(=O)C2=C(CSc3nnnn3C)CSC3N2C(=O)C3(NC(=O)CSCC#N)OC)cc1 (stereo not drawn) [Example 2, N-(4-carbomethoxyphenyl)-{7-beta-cyanomethylthioacetamido-7-alpha-methoxy-3-[(1-methyl-1H-tetrazol-5-yl)thio]methyl-3-cepheme-4-carboxylic}amide] |  | 6.6 Log10 cells/g of feces | 8.0 Log10 cells/g of feces | 8.0 Log10 cells/g of feces | 6.2 Log10 cells/g of feces |  | 9.1 Log10 cells/g of feces | < 3.0 Log10 cells/g of feces | + (1 to 33) | - (0) | ≥ 100 microgram/ml | ≥ 100 microgram/ml |  |  |
| COC(=O)Cc1ccc(NC(=O)C2=C(CSc3nnnn3C)CS[C@H]3N2C(=O)[C@]3(NC(=O)CSCC#N)OC)cc1 [Example 3, N-(4-carbomethoxymethylphenyl)-{7-betacyanomethylthioacetamido-7-alpha-methoxy-3-[(1-methyl-1H-tetrazol-5-yl)thio]methyl-3-cepheme-4-carboxylic}amide] |  | 7.1 Log10 cells/g of feces | 8.0 Log10 cells/g of feces | 7.9 Log10 cells/g of feces | 6.0 Log10 cells/g of feces |  | 9.1 Log10 cells/g of feces | < 3.0 Log10 cells/g of feces | ± (0 to 1) | - (0) |  |  | ≥ 100 µg/mL | ≥ 100 µg/mL |
| CO[C@@]1(NC(=O)CSCC#N)C(=O)N2C(C(=O)Nc3ccc(O)cc3)=C(CSc3nnnn3C)CS[C@@H]21 [Example 5, N-(4-hydroxyphenyl)-{7-beta-cyanomethylthioacetamido-7-alpha-methoxy-3-[(1-methyl-1H-tetrazol-5-yl)thio]methyl-3-cepheme-4-carboxylic}amide] |  | 6.7 Log10 cells/g of feces | 7.9 Log10 cells/g of feces | 8.2 Log10 cells/g of feces | 6.6 Log10 cells/g of feces |  | 9.0 Log10 cells/g of feces | < 3.0 Log10 cells/g of feces | + (1 to 33) | - (0) |  |  | ≥ 100 µg/mL | ≥ 100 µg/mL |
